Like-named read-outs stand apart in the source and are kept apart here.
Tests used:
[1] = tested on: MV4; 11 cells; experiment: Test 1: Test for evaluating the inhibition of cell proliferation; type: cell-based; details: for IC50: cultured for 7 days, PrestoBlue cell viability
Experimental: MV4; 11 cells were obtained from American Type Culture Collection (ATCC). The cells were cultured at 37° C. in the presence of 5% CO2 in RPMI 1640 medium containing 10% fetal bovine serum and 1% penicillin/streptomycin.
The cells were plated to a 96-well plate in 2000 cells/well, each test compound was added thereto to adjust the final concentration of DMSO to 0.1% of DMSO, and the cells were cultured for 7 days. After the cultivation, the cell viability was calculated with PrestoBlue™ Cell Viability Reagent (Invitrogen, A13261).

[2] = target: T1, hERG (human Ether-a-go-go Related Gene) (Homo sapiens (Human), UniProt Q12809)
T1 sequence (Q12809 whole entry): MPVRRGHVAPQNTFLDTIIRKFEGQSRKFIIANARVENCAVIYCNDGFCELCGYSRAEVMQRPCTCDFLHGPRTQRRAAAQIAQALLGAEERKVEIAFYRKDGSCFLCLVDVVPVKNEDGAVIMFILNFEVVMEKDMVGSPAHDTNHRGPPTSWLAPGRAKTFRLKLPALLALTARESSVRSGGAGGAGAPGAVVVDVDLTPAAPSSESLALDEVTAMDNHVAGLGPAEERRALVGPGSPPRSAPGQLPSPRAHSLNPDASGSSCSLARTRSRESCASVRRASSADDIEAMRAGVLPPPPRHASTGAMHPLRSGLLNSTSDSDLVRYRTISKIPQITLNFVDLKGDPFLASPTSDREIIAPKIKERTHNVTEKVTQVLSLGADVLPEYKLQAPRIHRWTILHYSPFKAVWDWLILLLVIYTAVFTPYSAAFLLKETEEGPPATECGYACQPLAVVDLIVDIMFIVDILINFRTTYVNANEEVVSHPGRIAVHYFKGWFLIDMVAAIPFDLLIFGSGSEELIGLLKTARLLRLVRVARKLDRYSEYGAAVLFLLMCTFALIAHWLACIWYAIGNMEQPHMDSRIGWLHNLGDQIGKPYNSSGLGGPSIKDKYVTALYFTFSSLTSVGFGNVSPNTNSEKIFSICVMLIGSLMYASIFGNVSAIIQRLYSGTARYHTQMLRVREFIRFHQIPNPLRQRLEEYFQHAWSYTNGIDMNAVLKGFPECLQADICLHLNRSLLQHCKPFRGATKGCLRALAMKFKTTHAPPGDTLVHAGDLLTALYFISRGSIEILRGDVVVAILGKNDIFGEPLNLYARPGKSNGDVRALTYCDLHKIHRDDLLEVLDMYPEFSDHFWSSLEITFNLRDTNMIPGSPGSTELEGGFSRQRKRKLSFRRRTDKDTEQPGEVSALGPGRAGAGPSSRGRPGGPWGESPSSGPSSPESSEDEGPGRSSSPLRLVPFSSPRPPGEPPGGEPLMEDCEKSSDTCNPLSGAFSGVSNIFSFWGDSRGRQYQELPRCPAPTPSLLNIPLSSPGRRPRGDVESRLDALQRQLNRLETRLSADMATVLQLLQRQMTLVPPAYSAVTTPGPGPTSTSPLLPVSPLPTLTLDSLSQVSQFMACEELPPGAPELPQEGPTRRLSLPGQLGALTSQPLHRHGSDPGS

[3] = target: T1, hERG (human Ether-a-go-go Related Gene); experiment: Test 2: Test for the hERG inhibition (QPatch HT, CHO cell strain stably expressing hERG); details: for hERG/MV4; 11: hERG IC50 divided by MV4, 11 proliferation IC50; for gap between concentration inhibiting 50% of MV4; 11 proliferation and concentration inhibiting 50% of hERG current: hERG IC50 vs MV4, 11 IC50; for IC50: CHO cells stably expressing hERG, QPatch HT
[4] = read-out: hERG IC50, hERG current

Question: With “2-(3-{1-[(1S,3S,4R,6S)-6-(cyclopropylmethyl)-2-azabicyclo[2.2.2]octane-3-carbonyl]piperidin-4-yl}-1H-pyrrolo[2,3-c]pyridin-1-yl)-5-fluoro-N,N-di(propan-2-yl)benzamide [Example 6]” as the compound, how does the IC50 [1] read?
Answer: Its IC50 is less than 3 nM.

Question: With “2-(3-{1-[(3S)-2-azabicyclo[2.2.2]octane-3-carbonyl]-1,2,3,6-tetrahydropyridin-4-yl}-1H-pyrrolo[2,3-c]pyridin-1-yl)-5-fluoro-N,N-di(propan-2-yl)benzamide [Example 3]” as the compound, how does the “hERG/MV4; 11” value [2] read?
Answer: Its value is 489.

Question: And the IC50 [1]?
Answer: Its IC50 is 36 nM.

Question: With “2-(3-{1-[(3S)-2-azabicyclo[2.2.2]octane-3-carbonyl]-1,2,3,6-tetrahydropyridin-4-yl}-1H-pyrrolo[2,3-c]pyridin-1-yl)-5-fluoro-N-methyl-N-(propan-2-yl)benzamide [Example 2]” as the compound, how does the “hERG/MV4; 11” value [3] read?
Answer: The value was 102.

Question: And the “gap between concentration inhibiting 50% of MV4; 11 proliferation and concentration inhibiting 50% of hERG current” value [3]?
Answer: The value was “more than 100 fold”.

Question: And the IC50 [3, 4]?
Answer: The IC50 was 54 µM.

Question: What about the IC50 [1] of the same compound?
Answer: The IC50 was 530 nM.

Question: What does the source list for “2-(3-{1-[(3S)-2-azabicyclo[2.2.2]octane-3-carbonyl]azepan-4-yl}-1H-pyrrolo[2,3-c]pyridin-1-yl)-5-fluoro-N-methyl-N-(propan-2-yl)benzamide [Example 11]”?
Answer: hERG/MV4; 11 [2]: >1287; IC50 [1]: < 30 nM

Question: “2-(3-{1-[(3S)-2-azabicyclo[2.2.2]octane-3-carbonyl]piperidin-3-yl}-1H-pyrrolo[2,3-c]pyridin-1-yl)-5-fluoro-N-methyl-N-(propan-2-yl)benzamide [Example 9]” was tested. Which “hERG/MV4; 11” value [2] did it give?
Answer: Its value is 22.

Question: What about the IC50 [1] of the same compound?
Answer: The IC50 was 1700 nM.

Question: How did the “hERG/MV4; 11” value [3] turn out when “2-(3-{1-[(3S)-2-azabicyclo[2.2.2]octane-3-carbonyl]piperidin-4-yl}-1H-pyrrolo[2,3-c]pyridin-1-yl)-5-fluoro-N-methyl-N-(propan-2-yl)benzamide [Example 4]” was run?
Answer: Its value is greater than 1370.

Question: And the “gap between concentration inhibiting 50% of MV4; 11 proliferation and concentration inhibiting 50% of hERG current” value [3]?
Answer: The value was “more than 100 fold”.

Question: And the IC50 [3, 4]?
Answer: Its IC50 is greater than 100 µM.

Question: What about the “gap between concentration inhibiting 50% of RS4; 11 proliferation and concentration inhibiting 50% of hERG current” value ([3]; text prints RS4, 11 cells (table is MV4; 11)) of the same compound?
Answer: The value was “more than 1000 fold”.

Question: And the IC50 [1]?
Answer: Its IC50 is 73 nM.

Question: And the “cell proliferation inhibition activity” value ([1]; summary in words)?
Answer: The value was “potent cell proliferation inhibition activity”.

Question: Which results are given for “2-(3-{1-[(3S)-2-azabicyclo[2.2.2]octane-3-carbonyl]pyrrolidin-3-yl}-1H-pyrrolo[2,3-c]pyridin-1-yl)-5-fluoro-N,N-di(propan-2-yl)benzamide [Example 8]”?
Answer: hERG/MV4; 11 [2]: 404; IC50 [1]: 24 nM

Question: How did the “hERG/MV4; 11” value [2] turn out when “2-(3-{1-[(3S)-2-azabicyclo[2.2.2]octane-3-carbonyl]pyrrolidin-3-yl}-1H-pyrrolo[2,3-c]pyridin-1-yl)-5-fluoro-N-methyl-N-(propan-2-yl)benzamide [Example 7]” was run?
Answer: Its value is 775.

Question: And the IC50 [1]?
Answer: The IC50 was 52 nM.

Question: With “2-(3-{2-[(1R,3S,4S)-2-azabicyclo[2.2.1]heptane-3-carbonyl]-2-azaspiro[3.4]octan-6-yl}-1H-pyrrolo[2,3-c]pyridin-1-yl)-5-fluoro-N-methyl-N-(propan-2-yl)benzamide [Example 24]” as the compound, how does the IC50 [1] read?
Answer: Its IC50 is 58 nM.

Question: For “2-(3-{8-[(3S)-2-azabicyclo[2.2.2]octane-3-carbonyl]-8-azabicyclo[3.2.1]octan-3-yl}-1H-pyrrolo[2,3-c]pyridin-1-yl)-5-fluoro-N-methyl-N-(propan-2-yl)benzamide [Example 20]”, which “hERG/MV4; 11” value [2] is on record?
Answer: Its value is 373.

Question: And the IC50 [1]?
Answer: Its IC50 is 85 nM.

Question: With “2-[3-({1-[(3S)-2-azabicyclo[2.2.2]octane-3-carbonyl]azetidin-3-yl}methyl)-1H-pyrrolo[2,3-c]pyridin-1-yl]-5-fluoro-N-methyl-N-(propan-2-yl)benzamide [Example 26]” as the compound, how does the “hERG/MV4; 11” value [2] read?
Answer: Its value is greater than 59.

Question: And the IC50 [1]?
Answer: Its IC50 is 1700 nM.

Question: Which “hERG/MV4; 11” value [2] does the source give for “2-[3-({1-[(3S)-2-azabicyclo[2.2.2]octane-3-carbonyl]piperidin-4-yl}methyl)-1H-pyrrolo[2,3-c]pyridin-1-yl]-5-fluoro-N-methyl-N-(propan-2-yl)benzamide [Example 27]” here?
Answer: The value was greater than 128.

Question: What about the IC50 [1] of the same compound?
Answer: Its IC50 is 780 nM.

Question: For “2-[3-({1-[(3S)-2-azabicyclo[2.2.2]octane-3-carbonyl]pyrrolidin-3-yl}methyl)-1H-pyrrolo[2,3-c]pyridin-1-yl]-5-fluoro-N-methyl-N-(propan-2-yl)benzamide [Example 25]”, which “hERG/MV4; 11” value [2] is on record?
Answer: The value was 334.

Question: And the IC50 [1]?
Answer: Its IC50 is 29 nM.

Question: Which results are given for “2-[3-({4-[(3S)-2-azabicyclo[2.2.2]octane-3-carbonyl]-1,4-diazepan-1-yl}methyl)-1H-pyrrolo[2,3-c]pyridin-1-yl]-5-fluoro-N-methyl-N-(propan-2-yl)benzamide [Example 29]”?
Answer: hERG/MV4; 11 [2]: >34; IC50 [1]: 2900 nM

Question: Which results are given for “2-[3-({4-[(3S)-2-azabicyclo[2.2.2]octane-3-carbonyl]piperazin-1-yl}methyl)-1H-pyrrolo[2,3-c]pyridin-1-yl]-5-fluoro-N-methyl-N-(propan-2-yl)benzamide [Example 28]”?
Answer: hERG/MV4; 11 [2]: >31; IC50 [1]: 3200 nM

Question: How did the “hERG/MV4; 11” value [2] turn out when “5-fluoro-2-(3-{1-[(1S,3S,4R)-5-methylidene-2-azabicyclo[2.2.2]octane-3-carbonyl]piperidin-4-yl}-1H-pyrrolo[2,3-c]pyridin-1-yl)-N,N-di(propan-2-yl)benzamide [Example 5]” was run?
Answer: The value was 589.

Question: What about the IC50 [1] of the same compound?
Answer: Its IC50 is 35 nM.

Question: Which “hERG/MV4; 11” value [2] does the source give for “5-fluoro-2-(3-{1-[(1S,3S,4S,5S)-5-fluoro-2-azabicyclo[2.2.2]octane-3-carbonyl]azepan-4-yl}-1H-pyrrolo[2,3-c]pyridin-1-yl)-N-methyl-N-(propan-2-yl)benzamide [Example 12]” here?
Answer: Its value is greater than 1050.

Question: What about the IC50 [1] of the same compound?
Answer: Its IC50 is less than 30 nM.

Question: With “5-fluoro-2-(3-{8-[(1S,3S,4R)-5-methylidene-2-azabicyclo[2.2.2]octane-3-carbonyl]-8-azabicyclo[3.2.1]octan-3-yl}-1H-pyrrolo[2,3-c]pyridin-1-yl)-N,N-di(propan-2-yl)benzamide [Example 23]” as the compound, how does the IC50 [1] read?
Answer: The IC50 was 280 nM.

Question: With “5-fluoro-N-methyl-2-(3-{8-[(1S,3S,4R)-5-methylidene-2-azabicyclo[2.2.2]octane-3-carbonyl]-8-azabicyclo[3.2.1]octan-3-yl}-1H-pyrrolo[2,3-c]pyridin-1-yl)-N-(propan-2-yl)benzamide [Example 21]” as the compound, how does the IC50 [1] read?
Answer: The IC50 was 430 nM.

Question: Which results are given for `CC(C)N(C)C(=O)c1cc(F)ccc1-n1cc(C2CCCN(C(=O)[C@H]3N[C@@H]4CC[C@H]3C4)CC2)c2ccncc21` (mixture of isomers) [Example 10, 2-(3-{1-[(1R,3S,4S)-2-azabicyclo[2.2.1]heptane-3-carbonyl]azepan-4-yl}-1H-pyrrolo[2,3-c]pyridin-1-yl)-5-fluoro-N-methyl-N-(propan-2-yl)benzamide]?
Answer: IC50 ([3]; hERG IC50, hERG current): 55 µM; IC50 ([1]; Homo sapiens, MV4-11, 168 h): 89 nM

Question: Which results are given for `CC(C)N(C(=O)c1cc(F)ccc1-n1cc(C2=CC3CCC(C2)N3C(=O)[C@H]2NC3CCC2CC3)c2ccncc21)C(C)C` (single isomer, unassigned) [Example 19a]?
Answer: IC50 ([3]; hERG IC50, hERG current): 6 µM; hERG/MV4; 11 [3]: >200; IC50 [1]: < 30 nM

Question: Which IC50 ([3]; hERG IC50, hERG current) does the source give for `CC(C)N(C(=O)c1cc(F)ccc1-n1cc(C2=CC3CCC(C2)N3C(=O)[C@H]2NC3CCC2CC3)c2ccncc21)C(C)C` (single isomer, unassigned) [Example 19b] here?
Answer: Its IC50 is 4.5 µM.

Question: What about the “hERG/MV4; 11” value [3] of the same compound?
Answer: Its value is 32.

Question: What about the IC50 [1] of the same compound?
Answer: The IC50 was 140 nM.

Question: Which results are given for `CC(C)N(C(=O)c1cc(F)ccc1-n1cc(C2CCN(C(=O)[C@H]3NC4CCC3CC4)CC2)c2ccncc21)C(C)C` [Example 1, 2-(3-{1-[(3S)-2-Azabicyclo[2.2.2]octane-3-carbonyl]piperidin-4-yl}-1H-pyrrolo[2,3-c]pyridin-1-yl)-5-fluoro-N,N-di(propan-2-yl)benzamide]?
Answer: IC50 ([3]; hERG IC50, hERG current): 30 µM; hERG/MV4; 11 [3]: 114; gap between concentration inhibiting 50% of MV4; 11 proliferation and concentration inhibiting 50% of hERG current [3]: more than 100 fold; IC50 ([1]; Homo sapiens, MV4-11, 168 h): 260 nM

Question: Which “hERG/MV4; 11” value [3] does the source give for `CC(C)N(C)C(=O)c1cc(F)ccc1-n1cc(C2CCCN(C(=O)[C@H]3N[C@@H]4CC[C@H]3C4)CC2)c2ccncc21` (stereo partly drawn) [Example 10, 2-(3-{1-[(1R,3S,4S)-2-azabicyclo[2.2.1]heptane-3-carbonyl]azepan-4-yl}-1H-pyrrolo[2,3-c]pyridin-1-yl)-5-fluoro-N-methyl-N-(propan-2-yl)benzamide] here?
Answer: Its value is 621.

Question: What about the “gap between concentration inhibiting 50% of MV4; 11 proliferation and concentration inhibiting 50% of hERG current” value [3] of the same compound?
Answer: Its value is “more than 100 fold”.

Question: With `CC(C)N(C(=O)c1cc(F)ccc1-n1cc(C2=CCCN(C(=O)[C@H]3NC4CCC3CC4)CCC2)c2ccncc21)C(C)C` [Example 14, 2-(3-{1-[(3S)-2-azabicyclo[2.2.2]octane-3-carbonyl]-1,2,3,4,7,8-hexahydroazocin-5-yl}-1H-pyrrolo[2,3-c]pyridin-1-yl)-5-fluoro-N,N-di(propan-2-yl)benzamide] as the compound, how does the IC50 ([3]; hERG IC50, hERG current) read?
Answer: The IC50 was 3.2 µM.

Question: What about the “hERG/MV4; 11” value [3] of the same compound?
Answer: Its value is 1.5.

Question: And the IC50 ([1]; Homo sapiens, MV4-11, 168 h)?
Answer: The IC50 was 2200 nM.

Question: For `C=C1C[C@@H]2CC[C@H]1[C@@H](C(=O)N1CCCC(c3cn(-c4ccc(F)cc4C(=O)N(C)C(C)C)c4cnccc34)CCC1)N2` [Example 16, 5-fluoro-N-methyl-2-(3-{1-[(1S,3S,4R)-5-methylidene-2-azabicyclo[2.2.2]octane-3-carbonyl]azocan-5-yl}-1H-pyrrolo[2,3-c]pyridin-1-yl)-N-(propan-2-yl)benzamide], which IC50 [1] is on record?
Answer: Its IC50 is 240 nM.

Question: How did the IC50 [1] turn out when `C=C1C[C@@H]2CC[C@H]1[C@@H](C(=O)N1CCCC(c3cn(-c4ccc(F)cc4C(=O)N(C(C)C)C(C)C)c4cnccc34)CCC1)N2` [Example 18, 5-fluoro-2-(3-{1-[(1S,3S,4R)-5-methylidene-2-azabicyclo[2.2.2]octane-3-carbonyl]azocan-5-yl}-1H-pyrrolo[2,3-c]pyridin-1-yl)-N,N-di(propan-2-yl)benzamide] was run?
Answer: Its IC50 is 730 nM.

Reference: patent US12559487B2, “Crosslinked optically active secondary amine derivative” (Sumitomo Pharma Co., Ltd., priority 2019, dated 2026)
